From PubChem BioAssay AID1963836 (Molecular Pharmacology Branch, DTP, NCI, 2024)

Test system: 857933-349-R-J2-PDC complex spheroid viability
Assay: Anticancer human tumor 857933-349-R-J2-PDC patient-derived colon adenocarcinoma cell line growth inhibition [POLQ]
Conditions: for IC50: curve of first compound; for viability, T/C: stronger effect = lower value
In short: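 PDC + HUVEC + MSC complex spheroids; POLQ inhibitors ± partner drugs; top conc. at/near clinical Cmax, else 10 microM (SN-38 1 microM), half-log dilutions; 37 degrees C, 5% CO2.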

[1] = second compound 0.0316 µM, first compound 0.0316 µM
[2] = second compound 0.0316 µM, first compound 0.1 µM
[3] = second compound 0.0316 µM, first compound 0.316 µM
[4] = second compound 0.0316 µM, first compound 1 µM
[5] = second compound 0.0316 µM, first compound 3.16 µM
[6] = second compound 0.0316 µM, first compound 10 µM
[7] = second compound 0.1 µM, first compound 0.0316 µM
[8] = second compound 0.1 µM, first compound 0.1 µM
[9] = second compound 0.1 µM, first compound 0.316 µM
[10] = second compound 0.1 µM, first compound 1 µM
[11] = second compound 0.1 µM, first compound 3.16 µM
[12] = second compound 0.1 µM, first compound 10 µM
[13] = second compound 0.316 µM, first compound 0.0316 µM
[14] = second compound 0.316 µM, first compound 0.1 µM
[15] = second compound 0.316 µM, first compound 0.316 µM
[16] = second compound 0.316 µM, first compound 1 µM
[17] = second compound 0.316 µM, first compound 3.16 µM
[18] = second compound 0.316 µM, first compound 10 µM
[19] = second compound 1 µM, first compound 0.0316 µM
[20] = second compound 1 µM, first compound 0.1 µM
[21] = second compound 1 µM, first compound 0.316 µM
[22] = second compound 1 µM, first compound 1 µM
[23] = second compound 1 µM, first compound 3.16 µM
[24] = second compound 1 µM, first compound 10 µM
[25] = second compound 3.16 µM, first compound 0.0316 µM
[26] = second compound 3.16 µM, first compound 0.1 µM
[27] = second compound 3.16 µM, first compound 0.316 µM
[28] = second compound 3.16 µM, first compound 1 µM
[29] = second compound 3.16 µM, first compound 3.16 µM
[30] = second compound 3.16 µM, first compound 10 µM
[31] = second compound 10 µM, first compound 0.0316 µM
[32] = second compound 10 µM, first compound 0.1 µM
[33] = second compound 10 µM, first compound 0.316 µM
[34] = second compound 10 µM, first compound 1 µM
[35] = second compound 10 µM, first compound 3.16 µM
[36] = second compound 10 µM, first compound 10 µM
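Also: spheroids exposed to compounds for seven days before readout.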

Compound: COc1cc(C2c3cc4c(cc3C(OC3OC5COC(C)OC5C(O)C3O)C3COC(=O)C23)OCO4)cc(OC)c1O (centres undefined) + Nc1ccc(C#CCN(C(=O)Cc2ncc(C(F)(F)F)cc2C(F)(F)F)c2ccc(F)cc2)nn1
- IC50 (second compound 0.0316 µM): 1290 nM
- IC50 (second compound 0.1 µM): 747 nM
- IC50 (second compound 0.316 µM): 567 nM
- IC50 (second compound 1 µM): 532 nM
- IC50 (second compound 3.16 µM): 512 nM
- IC50 (second compound 10 µM): 599 nM
- viability, T/C [1]: 97.1%
- viability, T/C [2]: 64.8%
- viability, T/C [3]: 64.5%
- viability, T/C [4]: 64%
- viability, T/C [5]: 38%
- viability, T/C [6]: 25.9%
- viability, T/C [7]: 92.5%
- viability, T/C [8]: 72.5%
- viability, T/C [9]: 53.6%
- viability, T/C [10]: 52.3%
- viability, T/C [11]: 36.8%
- viability, T/C [12]: 22.1%
- viability, T/C [13]: 94.2%
- viability, T/C [14]: 68.4%
- viability, T/C [15]: 53.5%
- viability, T/C [16]: 50.6%
- viability, T/C [17]: 35.9%
- viability, T/C [18]: 25.3%
- viability, T/C [19]: 101%
- viability, T/C [20]: 68%
- viability, T/C [21]: 54.3%
- viability, T/C [22]: 51.9%
- viability, T/C [23]: 33.3%
- viability, T/C [24]: 31.5%
- viability, T/C [25]: 85.3%
- viability, T/C [26]: 74%
- viability, T/C [27]: 53%
- viability, T/C [28]: 44.6%
- viability, T/C [29]: 31%
- viability, T/C [30]: 27.6%
- viability, T/C [31]: 88%
- viability, T/C [32]: 71.5%
- viability, T/C [33]: 60%
- viability, T/C [34]: 43.1%
- viability, T/C [35]: 34.1%
- viability, T/C [36]: 32.2%

Compound: O=C(Nc1ccc(O)c(NS(=O)(=O)c2ccc(F)cc2)c1)c1ccc(-c2ccccc2)cc1 + Cc1cccc(N(C)C(=O)C2C(O)CCN2c2nc(C)cc(C(F)(F)F)c2C#N)c1
- IC50 (second compound 0.0316 µM): > 10000 nM
- IC50 (second compound 0.1 µM): > 10000 nM
- IC50 (second compound 0.316 µM): > 10000 nM
- IC50 (second compound 1 µM): > 10000 nM
- IC50 (second compound 3.16 µM): > 10000 nM
- IC50 (second compound 10 µM): > 10000 nM
- viability, T/C [1]: 90.2%
- viability, T/C [2]: 85.2%
- viability, T/C [3]: 88.2%
- viability, T/C [4]: 90.6%
- viability, T/C [5]: 90.3%
- viability, T/C [6]: 92.5%
- viability, T/C [7]: 97.7%
- viability, T/C [8]: 86.2%
- viability, T/C [9]: 87%
- viability, T/C [10]: 97.5%
- viability, T/C [11]: 91.9%
- viability, T/C [12]: 90.8%
- viability, T/C [13]: 97.7%
- viability, T/C [14]: 85.5%
- viability, T/C [15]: 97.8%
- viability, T/C [16]: 93.4%
- viability, T/C [17]: 88.9%
- viability, T/C [18]: 70.8%
- viability, T/C [19]: 99.1%
- viability, T/C [20]: 82%
- viability, T/C [21]: 96.8%
- viability, T/C [22]: 95.4%
- viability, T/C [23]: 114%
- viability, T/C [24]: 93%
- viability, T/C [25]: 97.9%
- viability, T/C [26]: 95.9%
- viability, T/C [27]: 97.6%
- viability, T/C [28]: 93.4%
- viability, T/C [29]: 96.8%
- viability, T/C [30]: 77.7%
- viability, T/C [31]: 95.3%
- viability, T/C [32]: 105%
- viability, T/C [33]: 91%
- viability, T/C [34]: 90%
- viability, T/C [35]: 88.6%
- viability, T/C [36]: 73.8%
